“Also recorded” adds a separate entry of the source. Read-outs that look alike come from different tables or passages of the source.

Assay [1] has as its system retinal ganglion cells. As to conditions: literature; cited from earlier work.
A further assay relates to cortical neuronal cells. The following applies: cited from earlier work.
Assay [2] concerns retinal ganglion cells. It is filed as cell-based, rat.
For assay [3], the system named is rat neocortical tissue slices. As to conditions: Evans et al. 1982; Kral et al. 1993; cited from earlier work.
The subject of assay [4] is isolated retinas of chick embryos. As to conditions: LDH release and histological assessment; Chen et al. 1998; cited from earlier work.
In another assay the test system is NMDA receptor. As to conditions: whole cell recordings; Chen et al. 1998; cited from earlier work.
Assay [5] deals with retinal ganglion cells. The following applies: Lagreze et al. 1998, cited from earlier work.
Setting [6] is: co-exposure to 1.0 mM, about 24 hours, Yamamoto and Tang 1998.

For `NC(CCCCCP(=O)(O)O)C(=O)O` (stereo not drawn), in the assay with retinal ganglion cells [1], the “prevention of NMDA receptor-mediated death of retinal ganglion cells in vivo” value (shortened to “prevention … in vivo”) is “prevent NMDA receptor-mediated death of retinal ganglion cells in vivo”.

For the compound `N=C(NCCC[C@H](N)C(=O)O)N[N+](=O)[O-]` [N^G-nitro-L-arginine], the “increase of extracellular LDH and neuronal disintegration by potassium cyanide and NMDA” value (from here on “increase … by potassium cyanide and NMDA”) with cortical neuronal cells (setting [6]) is recorded as “partially prevented”.

For `NC(CCCP(=O)(O)O)C(=O)O` (racemic) [AP-5, DL-2-amino-5-phosphonovaleric acid], in the assay with retinal ganglion cells [2], the “protection of oxygen/glucose-deprived RGCs from apoptotic cell death (in words)” value was “demonstrated biological activity in protecting oxygen/glucose-deprived RGCs from apoptotic cell death”. In addition, the “protective effect in neocortical tissue slices” value in assay [3] is recorded as “protective effect”.

In the case of `O=C(O)c1ccccc1Nc1cccc(C(F)(F)F)c1` [flufenamic acid], the “protection of oxygen/glucose-deprived RGCs from apoptotic cell death (in words)” value in the assay on retinal ganglion cells [2] is “demonstrated biological activity in protecting oxygen/glucose-deprived RGCs from apoptotic cell death”. Further, the “protective effect on neurons under ischemic or excitotoxic conditions” value (shortened to “protective effect on neurons”) in assay [4] was “protective effect”. Moreover, the “NMDA receptor mediated currents” value in the assay with NMDA receptor is on record as “inhibited NMDA receptor mediated currents”.

Regarding `Cc1cccc(Nc2ccccc2C(=O)O)c1C` [mefenamic acid], in the assay on retinal ganglion cells [2], the “protection of oxygen/glucose-deprived RGCs from apoptotic cell death (in words)” value is on record as “to a lesser extent; also recorded: Less efficacy”. In addition, the “protective effect on neurons” value in assay [4] is “protective effect”. Further, the “NMDA receptor mediated currents” value with NMDA receptor was “inhibited NMDA receptor mediated currents”.

For the compound `Cc1ccc(Cl)c(Nc2ccccc2C(=O)O)c1Cl` [meclofenamic acid], the “protection of oxygen/glucose-deprived RGCs from apoptotic cell death (in words)” value in the assay with retinal ganglion cells [2] is reported as “to a lesser extent; also recorded: Less efficacy”. Moreover, the “protective effect on neurons” value in assay [4] is “protective effect”. The “NMDA receptor mediated currents” value in the assay on NMDA receptor is “inhibited NMDA receptor mediated currents”.

`CC12CC3CC(C)(C1)CC(N)(C3)C2` [memantine]: the “prevention of NMDA receptor-mediated death of retinal ganglion cells (in words)” value in the assay with retinal ganglion cells [5] is “prevent NMDA receptor-mediated death of retinal ganglion cells”. In addition, the “increase in the number of surviving retinal ganglion cells” value in the assay with retinal ganglion cells [5] (administered before retinal ischemia) is reported as approximately 30%; in the assay on retinal ganglion cells [5] (administered within 30 minutes of retinal ischemia), approximately 20%. Besides, in the assay on retinal ganglion cells [1], the “prevention … in vivo” value is recorded as “prevent NMDA receptor-mediated death of retinal ganglion cells in vivo”.

As for `O=C(O)c1cc(=O)c2ccccc2[nH]1` [kynurenic acid], in the assay on retinal ganglion cells [1], the “prevention … in vivo” value is reported as “prevent NMDA receptor-mediated death of retinal ganglion cells in vivo”.

`COc1ccc2[nH]cc(CCNC(C)=O)c2c1` [melatonin]: the “increase … by potassium cyanide and NMDA” value with cortical neuronal cells (setting [6]) is reported as “partially prevented”.

`NC(CCCCCP(=O)(O)O)C(=O)O` (racemic) [AP-7]: the “protection of oxygen/glucose-deprived RGCs from apoptotic cell death (in words)” value in the assay on retinal ganglion cells [2] is “demonstrated biological activity in protecting oxygen/glucose-deprived RGCs from apoptotic cell death”. Also, the “increase … by potassium cyanide and NMDA” value with cortical neuronal cells is on record as “partially prevented”.

The values above are taken from patent publication US6379882B1, “Method for selecting compounds for treating ischemia-related cellular damage” (Elan Pharmaceuticals, Inc., priority 1998, dated 2002).
